Assay results reported in patent publication US10570131B2, “Heterocyclic compounds and their use in preventing or treating bacterial infections” (MUTABILIS, priority 2015, dated 2020).
pIC50: −log10 of the molar value.

Assays:
[1] = target: T1, CTX-M-15 (Escherichia coli, UniProt Q9EXV5); assay: β-lactamase inhibitory activity, IC50 (nitrocefin hydrolysis); format: biochemical
T1 construct: made in house; host or cells: E. coli expression vector
Method: (§1) Method 1: β-lactamase Inhibitory Activity, Determination of IC50 (Table 1)
(§2) Enzyme activity was monitored by spectrophotometric measurement of nitrocefin (NCF—TOKU-E, N005) hydrolysis at 485 nm, at room temperature and in assay buffer A: 100 mM Phosphate pH7, 2% glycerol and 0.1 mg/mL Bovine serum albumin (Sigma, B4287). Enzymes were cloned in E. coli expression vector, expressed and purified in house using classical procedures. To a transparent polystyrene plate (Corning, 3628) were added in each well 5 μL DMSO or inhibitor dilutions in DMSO and 80 μL enzyme in buffer A. Plates were immediately read at 485 nm in a microplate spectrophotometer (BioTek, PowerWave HT) to enable background subtraction. After 30 min of pre-incubation at room temperature, 15 μL of NCF (200 μM final) were finally added in each well. Final enzyme concentrations were 0.1 nM (TEM-1), 0.075 nM (SHV-1), 0.4 nM (CTX-M-15), 1 nM (KPC-2), 0.2 nM (P99 AmpC), 0.2 nM (CMY-37), 0.4 nM (AmpC P. aeruginosa), 0.2 nM (OXA-1), 1.2 nM (OXA-11), 0.4 nM (OXA-15) and 0.3 nM (OXA-48). After 20 min incubation at room temperature, plates were once again read at 485 nm. Enzyme activity was obtained by subtracting the final signal by the background, and was converted to enzyme inhibition using non inhibited wells. IC50 curves were fitted to a classical Langmuir equilibrium model with Hill slope using XLFIT (IDBS).

[2] = target: T2, KPC-2 (Klebsiella pneumoniae, UniProt Q9F663); assay: as above; format: biochemical
T2 construct: made in house; host or cells: E. coli expression vector
Method: as §1, §2

[3] = target: T3, OXA-1 (Escherichia coli, UniProt P13661); assay: as above; format: biochemical
T3 construct: made in house; host or cells: E. coli expression vector
Method: as §1, §2

[4] = target: T4, OXA-11 (Pseudomonas aeruginosa, UniProt Q06778); assay: as above; format: biochemical
T4 construct: made in house; host or cells: E. coli expression vector
Method: as §1, §2

[5] = target: T5, OXA-48 (Klebsiella pneumoniae, UniProt Q6XEC0); assay: as above; format: biochemical
T5 construct: made in house; host or cells: E. coli expression vector
Method: as §1, §2

[6] = target: T6, SHV-1 (Klebsiella pneumoniae, UniProt P0AD64); assay: as above; format: biochemical
T6 construct: made in house; host or cells: E. coli expression vector
Method: as §1, §2

[7] = target: T7, TEM-1 (Escherichia coli, UniProt P62593); assay: as above; format: biochemical; details: class (A); 30 min pre-incubation; NCF 200 μM
T7 construct: made in house; host or cells: E. coli expression vector
Method: as §1, §2

[8] = target: T8, AmpC (PAE) (Pseudomonas aeruginosa, UniProt P24735); assay: biochemical; set-up: species or system P. aeruginosa
T8 construct: made in house; host or cells: E. coli expression vector
Method: as §1, §2

[9] = target: T9, AmpC (P99) (Enterobacter cloacae, UniProt P05364); assay: biochemical
T9 construct: made in house; host or cells: E. coli expression vector
Method: as §1, §2

[10] = target: T10, OXA-15 (Pseudomonas aeruginosa, UniProt Q51574); assay: biochemical
T10 construct: made in house; host or cells: E. coli expression vector
Method: as §1, §2

[11] = tested on: E. cloacae P99; assay: MIC of compounds alone, broth microdilution; format: cell-based; details: Enterobacter cloacae; strain P99 (AmpC); read-out: MIC compounds of the invention alone
Method: (§3) Compounds of the present invention were assessed against genotyped bacterial strains alone or in combination with the β-lactam ceftazidime (CAZ). […] Briefly, compounds alone according to the invention were prepared in DMSO and spotted (2 μL each) on sterile polystyrene plates (Corning, 3788). […] Log phase bacterial suspensions were adjusted to a final density of 5×10^5 cfu/mL in cation-adjusted Mueller-Hinton broth (Becton-Dickinson) and added to each well (98 μL). Microplates were incubated for 16-20 h at 35° C. in ambient air. The MIC of the compounds was defined as the lowest concentration of said compounds that prevented bacterial growth as read by visual inspection.

[12] = tested on: E. coli 190317; assay: MIC of compounds alone, broth microdilution; format: cell-based; details: Escherichia coli; strain 190317 (TEM-1, SHV-12, CTX-M-15, OXA-1); read-out: MIC compounds of the invention alone
Method: as §3

[13] = tested on: E. coli RGN238; assay: MIC of compounds alone, broth microdilution; format: cell-based; details: Escherichia coli, RGN238, read-out: MIC compounds of the invention alone
Method: as §3

[14] = tested on: P. aeruginosa CIP107051; assay: MIC of compounds alone, broth microdilution; format: cell-based; details: Pseudomonas aeruginosa; strain CIP107051 (TEM-24); read-out: MIC compounds of the invention alone
Method: as §3

[15] = tested on: E. coli 131119; assay: microbe, parasite or virus in culture; format: cell-based; details: Escherichia coli, 131119, read-out: MIC compounds of the invention alone
Method: as §3

[16] = tested on: K. pneumoniae 6299; assay: microbe, parasite or virus in culture; format: cell-based; details: Klebsiella pneumoniae, 6299, read-out: MIC compounds of the invention alone
Method: as §3

[17] = tested on: K. pneumoniae BAA-1898; assay: microbe, parasite or virus in culture; format: cell-based; details: Klebsiella pneumoniae, BAA1898, read-out: MIC compounds of the invention alone
Method: as §3

[18] = tested on: P. aeruginosa CIP105250; assay: microbe, parasite or virus in culture; format: cell-based; details: Pseudomonas aeruginosa, CIP105250, read-out: MIC compounds of the invention alone
Method: as §3

[19] = tested on: E. cloacae P99; assay: MIC of ceftazidime alone and in combination with compounds (synergy), broth microdilution; format: cell-based; details: MIC of ceftazidime with compound fixed at 4 μg/mL; strain P99 (AmpC)
[20] = tested on: K. pneumoniae 6299; assay: as above; format: cell-based; details: MIC of ceftazidime with compound fixed at 4 μg/mL; strain 6299 (TEM-1, SHV-11, OXA-163)
Method: as §3

[21] = tested on: K. pneumoniae BAA-1898; assay: as above; format: cell-based; details: MIC of ceftazidime with compound fixed at 4 μg/mL; strain BAA-1898 (TEM-1, SHV-11, SHV-12, KPC-2)
Method: as §3

[22] = tested on: P. aeruginosa CIP105250; assay: as above; format: cell-based; details: MIC of ceftazidime with compound fixed at 4 μg/mL; strain CIP105250 (OXA-15)
Method: as §3

[23] = tested on: P. aeruginosa CIP107051; assay: as above; format: cell-based; details: MIC of ceftazidime with compound fixed at 4 μg/mL; strain CIP107051 (TEM-24)
Method: as §3

[24] = tested on: E. coli 190317; assay: as above; format: cell-based; details: MIC of ceftazidime with compound fixed at 4 μg/mL; strain 190317 (TEM-1, SHV-12, CTX-M-15, OXA-1)

T8 sequence (P24735 27-397): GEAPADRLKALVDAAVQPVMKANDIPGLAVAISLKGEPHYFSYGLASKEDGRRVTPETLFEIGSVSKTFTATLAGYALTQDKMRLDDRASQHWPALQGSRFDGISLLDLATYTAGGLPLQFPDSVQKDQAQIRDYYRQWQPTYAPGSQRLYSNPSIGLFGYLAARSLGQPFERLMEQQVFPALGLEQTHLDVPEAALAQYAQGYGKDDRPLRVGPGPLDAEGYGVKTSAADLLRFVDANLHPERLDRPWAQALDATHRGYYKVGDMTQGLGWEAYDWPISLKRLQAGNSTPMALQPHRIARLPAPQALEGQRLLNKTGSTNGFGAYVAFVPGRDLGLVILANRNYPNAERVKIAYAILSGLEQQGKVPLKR
T1 sequence (Q9EXV5 entry or part of it): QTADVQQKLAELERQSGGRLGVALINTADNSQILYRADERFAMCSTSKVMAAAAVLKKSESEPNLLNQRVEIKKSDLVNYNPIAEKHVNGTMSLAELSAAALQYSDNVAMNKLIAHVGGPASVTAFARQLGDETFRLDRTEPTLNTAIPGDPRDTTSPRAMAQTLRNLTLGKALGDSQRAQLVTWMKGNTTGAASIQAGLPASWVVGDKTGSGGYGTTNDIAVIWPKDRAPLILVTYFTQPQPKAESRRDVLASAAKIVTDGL
T3 sequence (P13661 26-276): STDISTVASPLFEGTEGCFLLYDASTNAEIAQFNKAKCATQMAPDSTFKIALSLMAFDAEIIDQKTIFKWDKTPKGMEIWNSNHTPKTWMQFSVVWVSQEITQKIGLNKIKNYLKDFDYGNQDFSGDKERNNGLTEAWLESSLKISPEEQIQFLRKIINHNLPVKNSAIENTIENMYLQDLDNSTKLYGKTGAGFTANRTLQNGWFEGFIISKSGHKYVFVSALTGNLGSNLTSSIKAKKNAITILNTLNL
T5 sequence (Q6XEC0 23-265 limits assumed): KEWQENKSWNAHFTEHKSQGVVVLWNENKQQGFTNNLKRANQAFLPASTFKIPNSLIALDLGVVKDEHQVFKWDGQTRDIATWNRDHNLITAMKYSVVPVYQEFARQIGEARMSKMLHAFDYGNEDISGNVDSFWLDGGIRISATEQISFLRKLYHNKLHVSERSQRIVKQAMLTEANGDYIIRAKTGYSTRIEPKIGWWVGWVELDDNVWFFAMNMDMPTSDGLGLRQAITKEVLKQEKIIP
T10 sequence (Q51574 22-275): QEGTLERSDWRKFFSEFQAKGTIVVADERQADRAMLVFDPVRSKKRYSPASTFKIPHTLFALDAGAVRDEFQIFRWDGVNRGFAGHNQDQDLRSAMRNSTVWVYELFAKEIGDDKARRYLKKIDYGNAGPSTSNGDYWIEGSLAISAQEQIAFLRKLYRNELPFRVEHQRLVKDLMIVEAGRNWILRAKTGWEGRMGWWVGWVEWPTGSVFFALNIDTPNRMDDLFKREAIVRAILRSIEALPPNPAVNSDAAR
T9 sequence (P05364 21-381): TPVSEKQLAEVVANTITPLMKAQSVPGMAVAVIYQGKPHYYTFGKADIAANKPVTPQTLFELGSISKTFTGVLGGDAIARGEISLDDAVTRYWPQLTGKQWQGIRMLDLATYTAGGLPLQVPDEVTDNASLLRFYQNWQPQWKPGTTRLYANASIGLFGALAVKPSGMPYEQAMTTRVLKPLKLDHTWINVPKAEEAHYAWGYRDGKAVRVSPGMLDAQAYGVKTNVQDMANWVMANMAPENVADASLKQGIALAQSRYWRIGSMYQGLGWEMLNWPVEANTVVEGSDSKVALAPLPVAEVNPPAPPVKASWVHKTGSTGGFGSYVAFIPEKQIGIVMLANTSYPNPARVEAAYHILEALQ
T4 sequence (Q06778 21-266): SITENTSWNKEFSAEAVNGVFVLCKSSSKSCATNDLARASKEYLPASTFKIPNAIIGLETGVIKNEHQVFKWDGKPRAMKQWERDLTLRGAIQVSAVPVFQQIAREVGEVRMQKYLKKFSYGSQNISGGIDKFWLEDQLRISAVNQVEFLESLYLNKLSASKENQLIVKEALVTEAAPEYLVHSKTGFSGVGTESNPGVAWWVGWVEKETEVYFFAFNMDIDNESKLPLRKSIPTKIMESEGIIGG
T7 sequence (P62593 24-286 limits assumed): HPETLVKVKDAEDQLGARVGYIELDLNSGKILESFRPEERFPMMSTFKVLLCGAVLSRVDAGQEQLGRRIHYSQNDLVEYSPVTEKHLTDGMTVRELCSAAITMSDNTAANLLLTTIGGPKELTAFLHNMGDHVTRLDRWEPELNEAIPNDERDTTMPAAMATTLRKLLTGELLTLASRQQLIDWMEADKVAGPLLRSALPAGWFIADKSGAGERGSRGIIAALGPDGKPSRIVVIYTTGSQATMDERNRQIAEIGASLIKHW
T2 sequence (Q9F663 25-293 limits assumed): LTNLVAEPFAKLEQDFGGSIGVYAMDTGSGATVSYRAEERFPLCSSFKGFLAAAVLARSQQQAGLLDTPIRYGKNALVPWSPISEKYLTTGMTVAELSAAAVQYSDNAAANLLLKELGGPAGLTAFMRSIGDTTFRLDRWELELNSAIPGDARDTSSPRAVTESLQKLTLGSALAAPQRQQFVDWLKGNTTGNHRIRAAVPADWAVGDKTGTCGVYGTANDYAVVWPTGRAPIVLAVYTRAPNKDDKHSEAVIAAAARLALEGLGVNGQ
T6 sequence (P0AD64 22-286): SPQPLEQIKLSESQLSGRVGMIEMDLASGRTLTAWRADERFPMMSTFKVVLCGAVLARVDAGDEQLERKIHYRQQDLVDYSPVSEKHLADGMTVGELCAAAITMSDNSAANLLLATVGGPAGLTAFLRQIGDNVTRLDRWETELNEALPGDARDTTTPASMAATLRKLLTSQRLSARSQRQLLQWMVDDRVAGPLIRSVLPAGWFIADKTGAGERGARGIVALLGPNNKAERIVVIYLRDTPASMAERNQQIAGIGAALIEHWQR

Compound | pIC50 [1] | pIC50 [2] | pIC50 [3] | pIC50 [4] | pIC50 [5] | pIC50 [6] | pIC50 [7] | pIC50 [8] | pIC50 [9] | pIC50 [10] | MIC [11] | MIC [12] | MIC [13] | MIC [14] | MIC [15] | MIC [16] | MIC [17] | MIC [18] | MIC, combination of CAZ and compounds of the invention at 4 μg/mL [19] | MIC, combination of CAZ and compounds of the invention at 4 μg/mL [20] | further results
CNC(=O)CON=C1C[C@@H](C(=O)OC)N2C[C@@H]1N(OS(=O)(=O)[O-])C2=O.[Na+] (mixture of isomers) [Example 1, sodium [(2S,5S)-2-methoxycarbonyl-4-[2-(methylamino)-2-oxo-ethoxy]imino-7-oxo-1,6-diazabicyclo[3.2.1]octan-6-yl] sulfate] | 8.27 | 8.11 | 7.10 | 8.39 | 9.29 | 8.89 | 8.49 | 7.43 | 8.39 | 9.19 | > 32 µg/mL | > 32 µg/mL | > 32 µg/mL | > 32 µg/mL | > 32 µg/mL | > 32 µg/mL | > 32 µg/mL | > 32 µg/mL | 64 µg/mL | 32 µg/mL | MIC, combination of CAZ and compounds of the invention at 4 μg/mL [21]: 128 µg/mL; MIC, combination of CAZ and compounds of the invention at 4 μg/mL [22]: 64 µg/mL; MIC, combination of CAZ and compounds of the invention at 4 μg/mL [23]: 64 µg/mL; MIC, combination of CAZ and compounds of the invention at 4 μg/mL [24]: 4 µg/mL
NC(=O)CON=C1C[C@@H](C(N)=O)N2C[C@@H]1N(OS(=O)(=O)[O-])C2=O.[Na+] (mixture of isomers) [Example 3, sodium [(2S, 5S)-4-(2-amino-2-oxo-ethoxy)imino-2-carbamoyl-7-oxo-1,6-diazabicyclo[3.2.1]octan-6-yl] sulfate] | 8.70 | 7.48 | 7.77 | 7.32 | 8.24 | 8.34 | 8.52 | 6.66 | 8.13 | 8.80 | > 32 µg/mL | > 32 µg/mL | > 32 µg/mL | > 32 µg/mL | > 32 µg/mL | > 32 µg/mL | > 32 µg/mL | > 32 µg/mL | 32 µg/mL | 4 µg/mL | MIC, combination of CAZ and compounds of the invention at 4 μg/mL [21]: 64 µg/mL; MIC, combination of CAZ and compounds of the invention at 4 μg/mL [22]: 32 µg/mL; MIC, combination of CAZ and compounds of the invention at 4 μg/mL [23]: 32 µg/mL; MIC, combination of CAZ and compounds of the invention at 4 μg/mL [24]: ≤0.125 µg/mL
